Several values for one entry are separate records, joined by “and”; a condition that tells them apart may be missing. Equal values may be shown once. Activity calls are given as the source filed them. The rule behind the calls is not given here.
What was measured:
[1] = molecular target: T1, Integrin alpha-V/beta-3 (Homo sapiens, UniProt P05106+P06756); assay: Affinity against alpha V-beta3 integrin via competitive ELISA using vitronectin as natural ligand; format: protein-complex assay
[2] = molecular target: Integrin alpha-4/beta-1 (Homo sapiens) (UniProt P05556+P13612); assay: Cell adhesion of alpha4-beta1 integrin to fibronectin at 10e-5 M (Not active); format: protein-complex assay
[3] = molecular target: Integrin alpha-IIb/beta-3 (Homo sapiens, UniProt P05106+P08514); assay: Displacement of alphaIIb-beta3 integrin from fibrinogen by ELISA; format: protein-complex assay
[4] = molecular target: T1, Integrin alpha-V/beta-3; assay: Adhesion of recombinant alphaV-beta3 integrin expressed in CHO-K1 to osteopontin (OPN); format: cell-based
[5] = molecular target: Integrin alpha-5/beta-1 (Homo sapiens) (UniProt P05556+P08648); assay: Cell adhesion via alpha5-beta1 integrin to fibronectin at 10e-5 M (Not active); format: protein-complex assay
[6] = system: Caco-2; assay: Apparent permeability constant (Papp) was evaluated for Caco-2 model permeation; format: functional, cell-based; conditions: Homo sapiens
[7] = species: Homo sapiens; assay: Evaluated for primary human smooth muscle cell migration; format: functional
[8] = molecular target: T1, Integrin alpha-V/beta-3; assay: Displacement of vitronectin from alphaV-beta3 integrin in ELISA (Not active); format: protein-complex assay
[9] = molecular target: T1, Integrin alpha-V/beta-3; assay: Cell adhesion of alphaV-beta3 integrin expressed in CHO-K1 cell to osteopontin (OPN); format: cell-based

Row | Compound | IC50 [1] | other results
1 | O=C(O)CC1c2ccccc2C(=O)N(CCNCc2ccc(NC(=O)NCc3ccccc3)cc2)c2ccccc21 (centres undefined) |  | IC50 [8]: Not Active
2 | O=C(O)CC1c2ccccc2C(=O)N(CCOCc2ccc(NC(=O)NCc3ccccc3)cc2)c2ccccc21 (centres undefined) |  | IC50 [8]: Not Active
3 | O=C(O)CC1c2ccccc2C(=O)N(CC(=O)NCc2ccc(NC(=O)NCc3ccccc3)cc2)c2ccccc21 (centres undefined) | 23 nM | 
4 | O=C(O)CC1c2ccccc2C(=O)N(CC(=O)NCc2ccc(-c3nc4ccccc4[nH]3)nc2)c2ccccc21 (centres undefined) | 200 nM | 
5 | O=C(O)CC1c2ccccc2C(=O)N(CC(=O)NCCCCCNc2nc3ccccc3[nH]2)c2ccccc21 (centres undefined) | 12.9 nM | 
6 | O=C(O)CC1c2ccccc2C(=O)N(CC(=O)NCc2nc(-c3nc4ccccc4[nH]3)cs2)c2ccccc21 (centres undefined) | 1000 nM | 
7 | O=C(O)CC1c2ccccc2C(=O)N(CC(=O)NCCCCNc2nc3ccccc3[nH]2)c2ccccc21 (centres undefined) | 14.9 nM | 
8 | O=C(O)CC1c2ccccc2C(=O)N(CC(=O)NCc2ccc(-c3nc4ccccc4[nH]3)cc2)c2ccccc21 (centres undefined) | 74 nM | 
9 | O=C(O)CC1c2ccccc2C(=O)N(CC(=O)NCc2cc(-c3nc4ccccc4[nH]3)cs2)c2ccccc21 (centres undefined) | 100 nM | 
10 | O=C(O)CC1c2ccccc2C(=O)N(CC(=O)NCc2ccc(-c3nc4ccccc4[nH]3)s2)c2ccccc21 (centres undefined) | 500 nM | 
11 | O=C(O)CC1c2ccccc2C(=O)N(CC(=O)NCc2cccc(-c3nc4ccccc4[nH]3)c2)c2ccccc21 (centres undefined) | 10000 nM | 
12 | O=C(O)CC1c2ccccc2C(=O)N(CC(=O)Nc2ccc(-c3nc4ccccc4[nH]3)cc2)c2ccccc21 (centres undefined) | 5000 nM | 
13 | NC(N)=Nc1ccc(CNC(=O)CN2C(=O)c3ccccc3C(CC(=O)O)c3ccccc32)cc1 (centres undefined) | 84 nM | 
14 | O=C(O)CC1c2ccccc2C(=O)N(CC(=O)NCc2ccc(-c3nc4cc(Cl)ccc4[nH]3)cc2)c2ccccc21 (centres undefined) | 620 nM | 
15 | O=C(O)CC1c2ccccc2C(=O)N(CC(=O)NCc2ccc(NC(=O)OCc3ccccc3)cc2)c2ccccc21 (centres undefined) | 10000 nM | 
16 | O=C(O)CC1c2ccccc2C(=O)N(CCCCc2ccc(NC(=O)NCc3ccccc3)cc2)c2ccccc21 (centres undefined) | 10000 nM | 
17 | O=C(O)CC1c2ccccc2C(=O)N(CC(=O)NCc2ccc(NC(=O)CCc3ccccc3)cc2)c2ccccc21 (centres undefined) |  | IC50 [8]: Not Active
18 | O=C(O)CC1c2ccccc2C(=O)N(CC(=O)NCCc2ccc(-c3nc4ccccc4[nH]3)cc2)c2ccccc21 (centres undefined) | 380 nM | 
19 | O=C(O)CC1c2ccccc2C(=O)N(CC(=O)NCc2ccc(OC(=O)NCc3ccccc3)cc2)c2ccccc21 (centres undefined) | 10000 nM | 

Now from value to molecule, other results behind:

Row | IC50 [1] | Compound | other results
20 | 500 nM | O=C(O)CC1c2ccccc2C(=O)N(CC(=O)NCc2cc(-c3nc4ncccc4[nH]3)cs2)c2ccccc21 (centres undefined) | 
21 | 220 nM | Cc1cc2nc(-c3ccc(CNC(=O)CN4C(=O)c5ccccc5C(CC(=O)O)c5ccccc54)cc3)[nH]c2cc1C (centres undefined) | 
22 | 220 nM | O=C(O)CC1c2ccccc2C(=O)N(CC(=O)NCc2cc(CNc3ccccn3)cs2)c2ccccc21 (centres undefined) | 
23 | 1000 nM | N=C(N)c1csc(CNC(=O)CN2C(=O)c3ccccc3C(CC(=O)O)c3ccccc32)c1 (centres undefined) | 
24 | 1.6 nM | O=C(O)CC1c2ccccc2C(=O)N(CC(=O)NC[C@H]2CC[C@H](Nc3nc4ccccc4[nH]3)CC2)c2ccccc21 (some centres undefined) | inhibition [2]: inactive; IC50 [3]: > 100000 nM; IC50 [4]: 40 nM; inhibition [5]: inactive; Papp [6]: 2.7 ×10⁻⁶ cm/s; Inhibition [7]: 100%
25 | 5000 nM | O=C(O)CC1c2ccccc2C(=O)N(CC(=O)NCc2ccc(Nc3ccccn3)cc2)c2ccccc21 (centres undefined) | 
26 | 7 nM and 7.3 nM | O=C(O)CC1c2ccccc2C(=O)N(CC(=O)NCc2ccc(Nc3nc4ccccc4[nH]3)cc2)c2ccccc21 (centres undefined) | inhibition [2]: inactive; IC50 [9]: 100 nM; IC50 [3]: > 100000 nM; inhibition [5]: inactive; Inhibition [7]: 67%
27 | 1000 nM | O=C(O)CC1c2ccccc2C(=O)N(CC(=O)NCCCNc2ccccn2)c2ccccc21 (centres undefined) | 
28 | 1000 nM | O=C(O)CC1c2ccccc2C(=O)N(CC(=O)NCc2nc3ccccc3[nH]2)c2ccccc21 (centres undefined) | 

Reference: ChEMBL document CHEMBL1135448, “Synthesis and SAR of N-substituted dibenzazepinone derivatives as novel potent and selective alpha(V)beta(3) antagonists” (Bioorg Med Chem Lett, 2002)
